Measurements published in ChEMBL document CHEMBL3120136 (J Med Chem, 2014).
Values after ≈ are worked out from the molar mass of the structure shown.

Legend:
NS3 protease = NS3 protease (Hepacivirus C, UniProt C1KIQ2, A156T); experiment: Inhibition of Hepatitis C virus genotype 1a NS3/4A protease A156T mutant expressed in Escherichia coli BL21 (DE3) cells assessed as substrate cleavage using Ac-DE-Dap(QXL520)-EE-Abu-psi-[COO]AS-C(5-FAMsp)-NH2 as substrate by plate reader analysis; set-up: species or system Hepatitis C virus subtype 1a
[1] = Metabolic stability in rat hepatocytes assessed as extraction ratio at 1 uM; type: ADME, cell-based, Hepatocyte; details: read-out: ERH
[2] = Metabolic stability in human hepatocytes assessed as extraction ratio at 1 uM; type: ADME, cell-based, Hepatocyte; details: read-out: ERH
[3] = Inhibition of Hepatitis C virus genotype 1b NS3/4A protease using Ac-DE-Dap(QXL520)-EE-Abu-psi-[COO]-AS-Cys(5-FAMsp)-NH2 as substrate by FRET analysis; set-up: species or system Hepatitis C virus subtype 1b
[4] = Inhibition of Hepatitis C virus genotype 3a NS3/4A protease using Ac-DE-Dap(QXL520)-EE-Abu-psi-[COO]-AS-Cys(5-FAMsp)-NH2 as substrate by FRET analysis; set-up: species or system Hepatitis C virus subtype 3a
[5] = Aqueous solubility of the compound at pH 6.5 by modified shake-flask method; type: physicochemical
Cytochrome P450 3A4 [6] = target: T1, Cytochrome P450 3A4 (Homo sapiens, UniProt P08684); experiment: Time-dependent induction of CYP3A4 (unknown origin); type: ADME
Hepatitis C virus [7] = experiment: Antiviral activity against Hepatitis C virus infected in human HuH7 cells assessed as inhibition of HCV subgenomic replicon replication after 72 hrs by ELISA; type: functional, organism-based, Hepacivirus hominis, Huh-7; details: Hepatitis C virus, Huh-7, 72 h; read-out: EC50
[8] = Inhibition of Hepatitis C virus full-length NS3/4A protease assessed as quenched-fluorogenic RET-S1 substrate cleavage incubated for 10 mins prior to substrate addition by FRET analysis; set-up: species or system Hepacivirus hominis
[9] = Oral bioavailability in monkey liver; type: ADME, organism-based, Macaca mulatta; details: rhesus monkey
Rattus norvegicus = experiment: Volume of distribution at steady state in Sprague-Dawley rat at 1 mg/kg, iv by HPLC-MS/MS analysis; details: in vivo
[10] = Lipophilicity, log D of the compound; type: physicochemical; details: octanol/water
[11] = Metabolic stability in cynomolgus monkey hepatocytes assessed as extraction ratio at 1 uM; type: ADME, cell-based, Macaca fascicularis, Hepatocyte; details: read-out: ERH
Hepatitis C virus [12] = experiment: Antiviral activity against Hepatitis C virus harboring wild type NS3/4A protease infected in human HuH7 cells assessed as inhibition of HCV subgenomic replicon replication after 72 hrs by ELISA; type: functional, organism-based, Hepacivirus hominis; details: Huh-7, 72 h
[13] = target: Voltage-gated inwardly rectifying potassium channel KCNH2 (Homo sapiens, UniProt Q12809); experiment: Inhibition of human ERG at 10 uM
Hepatitis C virus [14] = experiment: Antiviral activity against Hepatitis C virus genotype 1b infected in human HuH7 cells assessed as decrease in replicon RNA level after 2 days by TaqMan Gold RT-PCR analysis; type: functional, organism-based, Hepacivirus hominis; details: Huh-7, 48 h
[15] = (§1) Ratio of AUC (0 to 24 hrs) in liver to plasma in Sprague-Dawley rat at 30 mg/kg, po by HPLC-MS/MS analysis; type: ADME, organism-based; set-up: dose 30 mg/kg, route oral; details: Sprague-Dawley, liver and plasma, read-out: Ratio AUC
[16] = Plasma clearance in rat assessed as extraction ratio; type: ADME, organism-based; details: read-out: ERH
[17] = Dissociation constant, pKa of the compound; type: physicochemical
[18] = Permeability from apical to basolateral side of human Caco2 cells; type: ADME, cell-based; details: Caco-2, read-out: permeability
Hepatitis C virus [19] = experiment: Antiviral activity against Hepatitis C virus harboring NS3/4A protease A156T mutant gene infected in human HuH7 cells assessed as inhibition of HCV subgenomic replicon replication after 72 hrs by ELISA; type: functional, organism-based, Hepacivirus hominis; details: Huh-7, 72 h
Hepatitis C virus [20] = experiment: Ratio of EC50 for Hepatitis C virus harboring NS3/4A protease A156T mutant gene to EC50 for Hepatitis C virus harboring wild type NS3/4A protease infected in human HuH7 cells; type: functional, Hepacivirus hominis, Huh-7
[21] = Inhibition of Hepatitis C virus genotype 4 NS3/4A protease using Ac-DE-Dap(QXL520)-EE-Abu-psi-[COO]-AS-Cys(5-FAMsp)-NH2 as substrate by FRET analysis
Cytochrome P450 2C9 = Cytochrome P450 2C9 (Homo sapiens, UniProt P11712); experiment: Inhibition of CYP2C9 (unknown origin); type: ADME
[22] = Inhibition of Hepatitis C virus genotype 1a NS3/4A protease using Ac-DE-Dap(QXL520)-EE-Abu-psi-[COO]-AS-Cys(5-FAMsp)-NH2 as substrate by FRET analysis; set-up: species or system Hepatitis C virus subtype 1a
Hepatitis C virus [23] = experiment: Antiviral activity against Hepatitis C virus genotype 2 infected in human HuH7 cells assessed as decrease in replicon RNA level after 2 days by TaqMan Gold RT-PCR analysis; type: functional, organism-based, Hepacivirus hominis; details: genotype 2, Huh-7, 48 h
[24] = Inhibition of Hepatitis C virus genotype 2b NS3/4A protease using Ac-DE-Dap(QXL520)-EE-Abu-psi-[COO]-AS-Cys(5-FAMsp)-NH2 as substrate by FRET analysis; set-up: species or system Hepatitis C virus subtype 2b
[25] = Metabolic stability in dog hepatocytes assessed as extraction ratio at 1 uM; type: ADME, cell-based, Canis lupus familiaris, Hepatocyte; details: read-out: ERH
Cytochrome P450 2D6 = Cytochrome P450 2D6 (Homo sapiens, UniProt P10635); experiment: Inhibition of CYP2D6 (unknown origin); type: ADME
[26] = Inhibition of Hepatitis C virus genotype 1a wild type NS3/4A protease expressed in Escherichia coli BL21 (DE3) cells assessed as substrate cleavage using Ac-DE-Dap(QXL520)-EE-Abu-psi-[COO]AS-C(5-FAMsp)-NH2 as substrate by plate reader analysis; set-up: species or system Hepatitis C virus subtype 1a
[27] = Inhibition of Hepatitis C virus genotype 6 NS3/4A protease using Ac-DE-Dap(QXL520)-EE-Abu-psi-[COO]-AS-Cys(5-FAMsp)-NH2 as substrate by FRET analysis
[28] = Efflux ratio of permeability from basolateral to apical side over apical to basolateral side in human Caco2 cells; type: ADME, cell-based; details: Caco-2
Hepatitis C virus [29] = experiment: Antiviral activity against Hepatitis C virus […] isolate Con1 harboring NS3/4A protease A156T mutant gene infected in human HuH7 cells assessed as inhibition of HCV replicon replication by luciferase assay; type: functional, organism-based, Hepacivirus hominis; details: isolate Con1, Huh-7
[30] = Aqueous solubility of the compound at pH 7.4 by modified shake-flask method; type: physicochemical
Hepatitis C virus [31] = experiment: Antiviral activity against Hepatitis C virus genotype 3 infected in human HuH7 cells assessed as decrease in replicon RNA level after 2 days by TaqMan Gold RT-PCR analysis; type: functional, organism-based, Hepacivirus hominis; details: genotype 3, Huh-7, 48 h
[32] = AUC (0 to 24 hrs) in Sprague-Dawley rat liver at 30 mg/kg, po by HPLC-MS/MS analysis; type: ADME, organism-based; set-up: time < 24 hr, dose 30 mg/kg, route oral
Cytochrome P450 3A4 [33] = target: T1, Cytochrome P450 3A4; experiment: Inhibition of CYP3A4 (unknown origin); type: ADME
[34] = Ratio of drug level in liver to plasma in dog; type: ADME, tissue-based, Canis lupus familiaris; details: liver and plasma
[35] = AUC (0 to 24 hrs) in Sprague-Dawley rat plasma at 30 mg/kg, po by HPLC-MS/MS analysis; type: ADME, organism-based; set-up: time < 24 hr, dose 30 mg/kg, route oral
Cytochrome P450 1A2 = target: T2, Cytochrome P450 1A2 (Homo sapiens, UniProt P05177); experiment: Inhibition of CYP1A2 (unknown origin); type: ADME
T2 sequence (P05177 whole entry): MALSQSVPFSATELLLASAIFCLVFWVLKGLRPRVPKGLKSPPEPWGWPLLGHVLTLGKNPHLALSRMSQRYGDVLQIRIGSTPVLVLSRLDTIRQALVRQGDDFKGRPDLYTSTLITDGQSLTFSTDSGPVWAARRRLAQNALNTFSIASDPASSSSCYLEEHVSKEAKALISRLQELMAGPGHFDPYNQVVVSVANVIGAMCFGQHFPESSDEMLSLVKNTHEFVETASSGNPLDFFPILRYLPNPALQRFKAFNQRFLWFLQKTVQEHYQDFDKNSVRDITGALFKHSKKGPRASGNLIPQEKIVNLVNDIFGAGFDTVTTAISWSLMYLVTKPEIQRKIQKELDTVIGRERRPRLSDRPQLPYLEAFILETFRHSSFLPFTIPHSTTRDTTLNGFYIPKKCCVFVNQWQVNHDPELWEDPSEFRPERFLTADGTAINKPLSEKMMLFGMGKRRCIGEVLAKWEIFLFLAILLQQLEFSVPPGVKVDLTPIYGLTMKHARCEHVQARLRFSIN

Cytochrome P450 2C19 = Cytochrome P450 2C19 (Homo sapiens, UniProt P33261); experiment: Inhibition of CYP2C19 (unknown origin); type: ADME
[36] = Oral bioavailability in rat liver; type: ADME, organism-based
[37] = Aqueous solubility of the compound at pH 1.2 by modified shake-flask method; type: physicochemical
[38] = Inhibition of Hepatitis C virus genotype 5 NS3/4A protease using Ac-DE-Dap(QXL520)-EE-Abu-psi-[COO]-AS-Cys(5-FAMsp)-NH2 as substrate by FRET analysis
Hepatitis C virus [39] = experiment: Antiviral activity against Hepatitis C virus […] isolate Con1 harboring wild type NS3/4A protease infected in human HuH7 cells assessed as inhibition of HCV replicon replication by luciferase assay; type: functional, organism-based, Hepacivirus hominis; details: isolate Con1, Huh-7
[40] = Cytotoxicity against human MT4 cells; type: cell-based
Liver = experiment: as §1; type: ADME, organism-based; set-up: dose 30 mg/kg, route oral; details: other tissue
[41] = Ratio of drug level in liver to plasma in Sprague-Dawley rat at 30 mg/kg, po by HPLC-MS/MS analysis; type: ADME, organism-based; set-up: dose 30 mg/kg, route oral; details: liver and plasma

T1 sequence (P08684 whole entry): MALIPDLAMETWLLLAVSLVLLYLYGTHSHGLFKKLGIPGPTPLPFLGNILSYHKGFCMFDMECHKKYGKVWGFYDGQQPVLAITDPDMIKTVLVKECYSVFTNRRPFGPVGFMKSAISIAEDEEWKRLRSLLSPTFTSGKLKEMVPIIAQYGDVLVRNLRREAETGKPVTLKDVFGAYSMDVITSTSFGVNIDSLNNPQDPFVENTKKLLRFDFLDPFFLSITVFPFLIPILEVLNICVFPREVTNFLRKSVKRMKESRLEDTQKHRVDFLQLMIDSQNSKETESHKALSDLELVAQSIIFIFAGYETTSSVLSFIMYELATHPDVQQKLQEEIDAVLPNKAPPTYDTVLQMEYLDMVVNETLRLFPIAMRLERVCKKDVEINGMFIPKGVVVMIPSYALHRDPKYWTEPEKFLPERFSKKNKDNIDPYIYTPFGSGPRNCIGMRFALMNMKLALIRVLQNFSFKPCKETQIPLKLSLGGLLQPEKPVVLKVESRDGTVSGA
Sequence of Cytochrome P450 2C19 (P33261 whole entry): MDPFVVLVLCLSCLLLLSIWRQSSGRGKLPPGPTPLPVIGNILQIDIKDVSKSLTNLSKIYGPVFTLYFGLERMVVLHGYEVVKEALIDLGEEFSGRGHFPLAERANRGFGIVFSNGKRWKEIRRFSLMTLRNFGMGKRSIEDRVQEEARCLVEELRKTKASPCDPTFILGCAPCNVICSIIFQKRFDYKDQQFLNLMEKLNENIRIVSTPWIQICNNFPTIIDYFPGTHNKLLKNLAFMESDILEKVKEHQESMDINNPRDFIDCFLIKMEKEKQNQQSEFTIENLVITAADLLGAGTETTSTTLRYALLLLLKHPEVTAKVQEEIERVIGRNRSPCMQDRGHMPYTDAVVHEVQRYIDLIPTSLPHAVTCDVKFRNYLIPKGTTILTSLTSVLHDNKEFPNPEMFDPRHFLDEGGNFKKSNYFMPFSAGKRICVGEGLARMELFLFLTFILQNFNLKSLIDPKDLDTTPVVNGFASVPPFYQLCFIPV
Sequence of NS3 protease (C1KIQ2 entry or part of it A156T): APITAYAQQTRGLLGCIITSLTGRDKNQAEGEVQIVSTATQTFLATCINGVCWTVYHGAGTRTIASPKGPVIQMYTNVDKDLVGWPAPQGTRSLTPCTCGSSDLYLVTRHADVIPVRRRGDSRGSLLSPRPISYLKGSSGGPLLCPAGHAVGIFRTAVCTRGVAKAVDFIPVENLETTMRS
Sequence of Cytochrome P450 2C9 (P11712 whole entry): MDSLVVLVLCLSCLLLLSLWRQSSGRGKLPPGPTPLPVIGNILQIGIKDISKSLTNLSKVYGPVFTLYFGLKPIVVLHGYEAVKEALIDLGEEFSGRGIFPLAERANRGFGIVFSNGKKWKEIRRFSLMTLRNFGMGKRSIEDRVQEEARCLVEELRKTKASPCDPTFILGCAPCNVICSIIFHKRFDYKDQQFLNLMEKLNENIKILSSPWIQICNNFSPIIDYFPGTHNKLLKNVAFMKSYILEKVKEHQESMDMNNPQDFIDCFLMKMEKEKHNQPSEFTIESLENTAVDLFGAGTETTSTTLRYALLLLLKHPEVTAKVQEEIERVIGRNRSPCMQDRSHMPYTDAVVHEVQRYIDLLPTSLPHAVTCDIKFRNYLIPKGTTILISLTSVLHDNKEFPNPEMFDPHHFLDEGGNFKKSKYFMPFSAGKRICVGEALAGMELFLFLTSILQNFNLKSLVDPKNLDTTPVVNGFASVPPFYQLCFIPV
Sequence of Cytochrome P450 2D6 (P10635 whole entry): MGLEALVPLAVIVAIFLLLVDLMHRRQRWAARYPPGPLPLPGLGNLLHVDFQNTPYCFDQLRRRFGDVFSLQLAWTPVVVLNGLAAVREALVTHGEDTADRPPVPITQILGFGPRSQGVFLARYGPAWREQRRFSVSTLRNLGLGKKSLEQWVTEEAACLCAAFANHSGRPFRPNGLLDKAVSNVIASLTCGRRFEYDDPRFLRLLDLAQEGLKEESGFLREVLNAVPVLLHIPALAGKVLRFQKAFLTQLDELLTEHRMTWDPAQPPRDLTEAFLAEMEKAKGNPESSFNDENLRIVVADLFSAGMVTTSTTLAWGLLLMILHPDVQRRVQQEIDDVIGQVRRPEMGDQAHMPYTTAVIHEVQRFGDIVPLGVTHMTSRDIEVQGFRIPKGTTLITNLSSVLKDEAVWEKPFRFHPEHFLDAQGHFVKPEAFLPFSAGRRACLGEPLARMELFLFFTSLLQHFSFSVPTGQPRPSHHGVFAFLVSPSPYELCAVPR
Sequence of Voltage-gated inwardly rectifying potassium channel KCNH2 (Q12809 whole entry): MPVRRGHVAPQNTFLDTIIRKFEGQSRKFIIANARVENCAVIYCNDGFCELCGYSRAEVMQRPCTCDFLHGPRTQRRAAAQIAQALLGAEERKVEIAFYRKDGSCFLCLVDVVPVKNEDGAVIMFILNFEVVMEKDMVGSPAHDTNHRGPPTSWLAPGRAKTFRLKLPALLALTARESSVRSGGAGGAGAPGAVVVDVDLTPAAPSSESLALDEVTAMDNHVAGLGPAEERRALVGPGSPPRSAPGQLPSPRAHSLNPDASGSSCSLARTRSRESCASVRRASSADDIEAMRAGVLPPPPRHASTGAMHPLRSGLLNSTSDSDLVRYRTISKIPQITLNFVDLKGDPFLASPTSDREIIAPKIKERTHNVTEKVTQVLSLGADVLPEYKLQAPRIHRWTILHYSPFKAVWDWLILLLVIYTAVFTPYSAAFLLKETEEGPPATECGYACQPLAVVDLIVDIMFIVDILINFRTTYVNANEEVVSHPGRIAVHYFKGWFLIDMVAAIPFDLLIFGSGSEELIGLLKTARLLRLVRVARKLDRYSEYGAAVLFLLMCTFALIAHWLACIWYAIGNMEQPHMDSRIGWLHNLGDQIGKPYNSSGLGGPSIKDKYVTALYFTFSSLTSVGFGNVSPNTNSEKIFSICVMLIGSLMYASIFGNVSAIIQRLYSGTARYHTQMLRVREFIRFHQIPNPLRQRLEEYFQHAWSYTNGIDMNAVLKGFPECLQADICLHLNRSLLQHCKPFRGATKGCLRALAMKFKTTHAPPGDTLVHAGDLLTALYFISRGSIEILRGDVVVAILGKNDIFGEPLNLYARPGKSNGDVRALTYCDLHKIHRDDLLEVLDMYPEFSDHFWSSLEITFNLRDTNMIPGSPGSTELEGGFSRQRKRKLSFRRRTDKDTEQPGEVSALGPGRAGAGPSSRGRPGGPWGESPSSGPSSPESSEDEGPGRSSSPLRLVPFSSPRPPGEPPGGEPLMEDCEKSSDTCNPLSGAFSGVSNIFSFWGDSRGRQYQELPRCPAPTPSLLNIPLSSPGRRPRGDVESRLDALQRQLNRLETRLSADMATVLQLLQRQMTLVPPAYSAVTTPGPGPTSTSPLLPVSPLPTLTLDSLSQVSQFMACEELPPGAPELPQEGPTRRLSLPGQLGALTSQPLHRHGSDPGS

`CC(C)(C)OC(=O)N[C@H]1CCCCC/C=C\[C@@H]2C[C@@]2(C(=O)NS(=O)(=O)C2CC2)NC(=O)[C@@H]2C[C@@H](OC(=O)N3Cc4cccc(F)c4C3)CN2C1=O` [DANOPREVIR] gave a Ki (NS3 protease) of 44.8 nM, a hepatic extraction ratio at 1 µM [1] of 0.06 and a hepatic extraction ratio at 1 µM [2] of 0.58. It also gave an IC50 [3] of 0.2 nM, an IC50 [4] of 3.5 nM and a solubility thermodynamic [5] of 0.548 mg/mL (≈ 749 µM). For the same compound, the Activity (Cytochrome P450 3A4 [6]) was “Not Active”, the EC50 (Hepatitis C virus [7]) was 2.4 nM and the IC50 [8] was 1 nM. The bioavailability [9] was 78%, the Vdss (Rattus norvegicus) was 0.155 L/kg and the logD [10] was 2.1. The hepatic extraction ratio at 1 µM [11] was 0.54, the EC50 (Hepatitis C virus [12]) was < 0.25 nM and the “inhibition (INH)” value [13] was “Not Active”. For the same compound, the EC50 (Hepatitis C virus [14]) was 1.6 nM, the Kp [15] was 10 and the hepatic extraction ratio [16] was 0.04. The pKa [17] was 5.27, the Papp A→B [18] was < 20 nm/s and the EC50 (Hepatitis C virus [19]) was 0.5 nM. For the same compound, the “Ratio EC50” value (Hepatitis C virus [20]) was 2, the IC50 [21] was 0.2 nM and the INH (Cytochrome P450 2C9) was > 25 µM. For the same compound, the IC50 [22] was 0.2 nM, the EC50 (Hepatitis C virus [23]) was 20 nM and the IC50 [24] was 1.6 nM. The hepatic extraction ratio at 1 µM [25] was 0.23, the INH (Cytochrome P450 2D6) was > 25 µM and the Ki [26] was 1 nM. The IC50 [27] was 0.2 nM, the efflux ratio [28] was > 2 and the IC50 (Hepatitis C virus [29]) was 5.7 nM. For the same compound, the solubility thermodynamic [30] was > 1 mg/mL, the EC50 (Hepatitis C virus [31]) was 20 nM and the AUC(0-t) at 24 h [32] was 90.8 µg·h/mL. The INH (Cytochrome P450 3A4 [33]) was 12 µM, the Kp [34] was 30 and the AUC(0-t) at 24 h [35] was 9.5 µg·h/mL. The INH (Cytochrome P450 1A2) was > 25 µM, the INH (Cytochrome P450 2C19) was > 25 µM and the bioavailability [36] was 15%. For the same compound, the solubility thermodynamic [37] was 0.0005 mg/mL (≈ 0.683 µM), the IC50 [38] was 0.2 nM and the IC50 (Hepatitis C virus [39]) was 0.24 nM. For the same compound, the CC50 [40] was 54000 nM.

Compound `CC(C)(C)OC(=O)N[C@H]1CCCCC/C=C\[C@@H]2C[C@@]2(C(=O)NS(=O)(=O)C2CC2)NC(=O)[C@@H]2C[C@@H](OC(=O)N3CCc4ccccc4C3)CN2C1=O` has a hepatic extraction ratio at 1 µM [1] of 0.05, a hepatic extraction ratio at 1 µM [2] of 0.49 and a solubility thermodynamic [5] of 0.812 mg/mL (≈ 1120 µM). For the same compound, the EC50 (Hepatitis C virus [7]) was 17.5 nM, the IC50 [8] was 2.2 nM and the Vdss (Rattus norvegicus) was 5.982 L/kg. The logD [10] was 2.2, the hepatic extraction ratio at 1 µM [11] was 0.53 and the “Ratio AUC” value (Liver) was 4608. The hepatic extraction ratio [16] was > 1, the Papp A→B [18] was < 20 nm/s and the hepatic extraction ratio at 1 µM [25] was 0.36. For the same compound, the Kp [41] was > 1000, the efflux ratio [28] was > 2 and the solubility thermodynamic [30] was > 1 mg/mL. It also gave an AUC(0-t) at 24 h [32] of 276 µg·h/mL, an AUC(0-t) at 24 h [35] of 0.06 µg·h/mL and a solubility thermodynamic [37] of 0.0005 mg/mL (≈ 0.687 µM).
